Columns and labels:
Format in all cases: in vivo
[1] = system: Spodoptera littoralis (Egyptian cotton leaf worm); experiment: Example B1: Spodoptera littoralis, sprayed cotton leaf discs; conditions: foliar, 72 h, application rate 200 ppm, L1 larvae, 3 days after infestation, read-out: control in at least one of the three categories (mortality, anti-feedancy or growth inhibition)
Experimental: Cotton leaf discs were placed on agar in 24-well microtiter plates and sprayed with aqueous test solutions prepared from 10,000 ppm DMSO stock solutions. After drying the leaf discs were infested with five L1 larvae. The samples were assessed for mortality, anti-feedant effect, and growth inhibition in comparison to untreated samples 3 days after infestation. Control of Spodoptera littoralis by a test sample is when at least one of mortality, anti-feedant effect, and growth inhibition is higher than the untreated sample.

[2] = system: Plutella xylostella (diamond back moth); experiment: Example B3: Plutella xylostella, treated artificial diet; conditions: 120 h, application rate 200 ppm, L2 larvae, 5 days after infestation, read-out: effect in at least one of the two categories (mortality or growth inhibition)
Experimental: (§1) 24-well microtiter plates with artificial diet were treated with aqueous test solutions prepared from 10,000 ppm DMSO stock solutions by pipetting. After drying, the plates were infested with L2 larvae (10 to 15 per well). The samples were assessed for mortality and growth inhibition in comparison to untreated samples 5 days after infestation.

[3] = system: Diabrotica balteata (corn root worm); experiment: Example B4: Diabrotica balteata, sprayed maize sprouts; conditions: 96 h, application rate 200 ppm, L2 larvae, 4 days after infestation, read-out: effect in at least one of the two categories (mortality or growth inhibition)
Experimental: as §1, with “Maize sprouts, placed on an agar layer in 24-well” for “24-well”, “plates” for “plates with artificial diet”, “spraying.” for “pipetting.”, “(6” for “(10”, “10” for “15”, “4” for “5”

[4] = system: Myzus persicae (green peach aphid); experiment: Example B5: Myzus persicae, sprayed sunflower leaf discs; conditions: foliar, 144 h, application rate 200 ppm, aphid population of mixed ages, 6 days after infestation
Experimental: Sunflower leaf discs were placed on agar in a 24-well microtiter plate and sprayed with aqueous test solutions prepared from 10,000 ppm DMSO stock solutions. After drying, the leaf discs were infested with an aphid population of mixed ages. The samples were assessed for mortality 6 days after infestation.

[5] = system: Euschistus heros (neotropical brown stink bug); experiment: Example B6: Euschistus heros, sprayed soybean leaf; conditions: 120 h, application rate 200 ppm, N-2 nymphs, 5 days after infestation
Excerpt: Soybean leaf on agar in 24-well microtiter plates were sprayed with aqueous test solutions prepared from 10,000 ppm DMSO stock solutions. After drying the leaf were infested with N-2 nymphs.

[6] = system: Spodoptera littoralis (Egyptian cotton leaf worm); experiment: Example B2: Spodoptera littoralis, systemic test via lettuce roots in agar; conditions: 144 h, application rate 12.5 ppm, Spodoptera eggs, 6 days after infestation, read-out: control in at least one of the three categories (mortality, anti-feedancy or growth inhibition)
Excerpt: Test compounds were applied by pipette from 10,000 ppm DMSO stock solutions into 24-well plates and mixed with agar. Lettuce seeds were placed on the agar and the multi well plate was closed by another plate which contains also agar. After 7 days the roots have absorbed the compound and the lettuce has grown into the lid plate. The lettuce leafs were now cut off into the lid plate. Spodoptera eggs were pipetted through a plastic stencil on a humid gel blotting paper and the plate closed with it. The samples were assessed for mortality, anti-feedant effect and growth inhibition in comparison to untreated samples 6 days after infestation.
The following compounds gave an effect of at least 80% control in at least one of the three categories (mortality, anti-feedancy or growth inhibition) at an application rate of 12.5 ppm: P2, P3, P8, P9, P11 and P17, P19, P20, P22, P23, P25, P26, P28, P30, P31, P32, P33, P40, P42, P43, P44, P45, P46, P47, P48, P49, P50, P51, P52, P53, P54, P60 and P61.

CCS(=O)(=O)c1cc(-c2ccc(C(F)(F)F)cc2)cnc1C(=O)N=c1ccc(SC(F)(F)F)cn1C [Compound P16]
≥ 80%: percent control (mortality, anti-feedant effect or growth inhibition) at 200 ppm [1] | percent effect (mortality or growth inhibition) at 200 ppm [2] | percent effect (mortality or growth inhibition) at 200 ppm [3] | mortality at 200 ppm [4] | mortality at 200 ppm [5]

CCS(=O)(=O)c1cc(-c2ccccc2)cnc1C(=O)/N=c1\sc(C(F)(F)F)nn1C [Compound P6, (N)-3-ethylsulfonyl-N-[3-methyl-5-(trifluoromethyl)-1,3,4-thiadiazol-2-ylidene]-5-phenyl-pyridine-2-carboxamide]
≥ 80%: percent control (mortality, anti-feedant effect or growth inhibition) at 200 ppm [1] | percent effect (mortality or growth inhibition) at 200 ppm [2] | percent effect (mortality or growth inhibition) at 200 ppm [3] | mortality at 200 ppm [4] | mortality at 200 ppm [5]

CCS(=O)(=O)c1cc(-c2ccc(C(F)(F)F)cc2)cnc1C(=O)/N=c1\sc(C(F)(F)F)nn1C [Compound P5]
≥ 80%: percent control (mortality, anti-feedant effect or growth inhibition) at 200 ppm [1] | percent effect (mortality or growth inhibition) at 200 ppm [2] | percent effect (mortality or growth inhibition) at 200 ppm [3] | mortality at 200 ppm [4] | mortality at 200 ppm [5]

CCS(=O)(=O)c1cc(-c2cnc(C(F)(F)F)s2)cnc1C(=O)/N=c1\sc(C(F)(F)F)nn1C [Compound P56]
≥ 80%: percent control (mortality, anti-feedant effect or growth inhibition) at 200 ppm [1] | percent effect (mortality or growth inhibition) at 200 ppm [2] | percent effect (mortality or growth inhibition) at 200 ppm [3] | mortality at 200 ppm [4]

CCS(=O)(=O)c1cc(-c2ncc(F)cc2F)cnc1C(=O)/N=c1\sc(C(F)(F)F)nn1C [Compound P66]
≥ 80%: percent control (mortality, anti-feedant effect or growth inhibition) at 200 ppm [1] | percent effect (mortality or growth inhibition) at 200 ppm [2] | percent effect (mortality or growth inhibition) at 200 ppm [3] | mortality at 200 ppm [4] | mortality at 200 ppm [5]

CCS(=O)(=O)c1cc(-c2ccc(Cl)cc2)cnc1C(=O)/N=c1\sc(C(F)(F)F)nn1C [Compound P2, (N)-5-(4-chlorophenyl)-3-ethylsulfonyl-N-[3-methyl-5-(trifluoromethyl)-1,3,4-thiadiazol-2-ylidene]pyridine-2-carboxamide]
≥ 80%: percent control (mortality, anti-feedant effect or growth inhibition) at 200 ppm [1] | percent control (mortality, anti-feedant effect or growth inhibition) at 12.5 ppm [6] | percent effect (mortality or growth inhibition) at 200 ppm [2] | percent effect (mortality or growth inhibition) at 200 ppm [3] | mortality at 200 ppm [4] | mortality at 200 ppm [5]

CCS(=O)(=O)c1cc(C2(C#N)CC2)cnc1C(=O)/N=c1\sc(C(F)(F)F)nn1C [Compound P19]
≥ 80%: percent control (mortality, anti-feedant effect or growth inhibition) at 200 ppm [1] | percent control (mortality, anti-feedant effect or growth inhibition) at 12.5 ppm [6] | percent effect (mortality or growth inhibition) at 200 ppm [2] | percent effect (mortality or growth inhibition) at 200 ppm [3] | mortality at 200 ppm [4] | mortality at 200 ppm [5]

CCS(=O)(=O)c1cc(-c2cccc(Cl)n2)cnc1C(=O)/N=c1\sc(C(F)(F)F)nn1C [Compound P64, (N)-5-(6-chloro-2-pyridyl)-3-ethylsulfonyl-N-[3-methyl-5-(trifluoromethyl)-1,3,4-thiadiazol-2-ylidene]pyridine-2-carboxamide]
≥ 80%: percent control (mortality, anti-feedant effect or growth inhibition) at 200 ppm [1] | percent effect (mortality or growth inhibition) at 200 ppm [2] | percent effect (mortality or growth inhibition) at 200 ppm [3] | mortality at 200 ppm [4] | mortality at 200 ppm [5]

CCS(=O)(=O)c1cc(-c2ccc(C#N)nc2)cnc1C(=O)/N=c1\sc(C(F)(F)F)nn1C [Compound P52]
≥ 80%: percent control (mortality, anti-feedant effect or growth inhibition) at 200 ppm [1] | percent control (mortality, anti-feedant effect or growth inhibition) at 12.5 ppm [6] | percent effect (mortality or growth inhibition) at 200 ppm [2] | percent effect (mortality or growth inhibition) at 200 ppm [3] | mortality at 200 ppm [5]

CCS(=O)(=O)c1cc(-c2cccc(C#N)c2)cnc1C(=O)/N=c1\sc(C(F)(F)F)nn1C [Compound P23]
≥ 80%: percent control (mortality, anti-feedant effect or growth inhibition) at 200 ppm [1] | percent control (mortality, anti-feedant effect or growth inhibition) at 12.5 ppm [6] | percent effect (mortality or growth inhibition) at 200 ppm [2] | percent effect (mortality or growth inhibition) at 200 ppm [3] | mortality at 200 ppm [5]

CCS(=O)(=O)c1cc(-c2ccc(F)cc2F)cnc1C(=O)/N=c1\sc(C(F)(F)F)nn1C [Compound P25]
≥ 80%: percent control (mortality, anti-feedant effect or growth inhibition) at 200 ppm [1] | percent control (mortality, anti-feedant effect or growth inhibition) at 12.5 ppm [6] | percent effect (mortality or growth inhibition) at 200 ppm [2] | percent effect (mortality or growth inhibition) at 200 ppm [3] | mortality at 200 ppm [5]

CCS(=O)(=O)c1cc(-c2cccc(C(F)(F)F)n2)cnc1C(=O)/N=c1\sc(C(F)(F)F)nn1C [Compound P44]
≥ 80%: percent control (mortality, anti-feedant effect or growth inhibition) at 200 ppm [1] | percent control (mortality, anti-feedant effect or growth inhibition) at 12.5 ppm [6] | percent effect (mortality or growth inhibition) at 200 ppm [2] | percent effect (mortality or growth inhibition) at 200 ppm [3] | mortality at 200 ppm [5]

CCS(=O)(=O)c1cc(-c2cccc(C#N)n2)cnc1C(=O)/N=c1\sc(C(F)(F)F)nn1C [Compound P48]
≥ 80%: percent control (mortality, anti-feedant effect or growth inhibition) at 200 ppm [1] | percent control (mortality, anti-feedant effect or growth inhibition) at 12.5 ppm [6] | percent effect (mortality or growth inhibition) at 200 ppm [2] | percent effect (mortality or growth inhibition) at 200 ppm [3] | mortality at 200 ppm [5]

CCS(=O)(=O)c1cc(-c2ncc(C(F)(F)F)cc2F)cnc1C(=O)/N=c1\sc(C(F)(F)F)nn1C [Compound P47]
≥ 80%: percent control (mortality, anti-feedant effect or growth inhibition) at 200 ppm [1] | percent control (mortality, anti-feedant effect or growth inhibition) at 12.5 ppm [6] | percent effect (mortality or growth inhibition) at 200 ppm [2] | percent effect (mortality or growth inhibition) at 200 ppm [3] | mortality at 200 ppm [5]

CCS(=O)(=O)c1cc(C2CC2)cnc1C(=O)/N=c1\ccc(SC(F)(F)F)cn1C [Compound P18, (N)-5-cyclopropyl-3-ethylsulfonyl-N-[1-methyl-5-(trifluoromethylsulfanyl)-2-pyridylidene]pyridine-2-carboxamide]
≥ 80%: percent control (mortality, anti-feedant effect or growth inhibition) at 200 ppm [1] | percent effect (mortality or growth inhibition) at 200 ppm [2] | percent effect (mortality or growth inhibition) at 200 ppm [3] | mortality at 200 ppm [4] | mortality at 200 ppm [5]

CCS(=O)(=O)c1cc(-c2cncc(C(F)(F)F)c2)cnc1C(=O)/N=c1\sc(C(F)(F)F)nn1C [Compound P53]
≥ 80%: percent control (mortality, anti-feedant effect or growth inhibition) at 200 ppm [1] | percent control (mortality, anti-feedant effect or growth inhibition) at 12.5 ppm [6] | percent effect (mortality or growth inhibition) at 200 ppm [2] | percent effect (mortality or growth inhibition) at 200 ppm [3] | mortality at 200 ppm [4]

CCS(=O)(=O)c1cc(-c2ccc(C(F)(F)F)cn2)cnc1C(=O)/N=c1\sc(C(F)(F)F)nn1C [Compound P50]
≥ 80%: percent control (mortality, anti-feedant effect or growth inhibition) at 200 ppm [1] | percent control (mortality, anti-feedant effect or growth inhibition) at 12.5 ppm [6] | percent effect (mortality or growth inhibition) at 200 ppm [2] | percent effect (mortality or growth inhibition) at 200 ppm [3] | mortality at 200 ppm [5]

CCS(=O)(=O)c1cc(-c2cc(F)ccc2F)cnc1C(=O)/N=c1\sc(C(F)(F)F)nn1C [Compound P33]
≥ 80%: percent control (mortality, anti-feedant effect or growth inhibition) at 200 ppm [1] | percent control (mortality, anti-feedant effect or growth inhibition) at 12.5 ppm [6] | percent effect (mortality or growth inhibition) at 200 ppm [2] | percent effect (mortality or growth inhibition) at 200 ppm [3] | mortality at 200 ppm [5]

CCS(=O)(=O)c1cc(-c2ncc(C(F)(F)F)cn2)cnc1C(=O)/N=c1\sc(C(F)(F)F)nn1C [Compound P43]
≥ 80%: percent control (mortality, anti-feedant effect or growth inhibition) at 200 ppm [1] | percent control (mortality, anti-feedant effect or growth inhibition) at 12.5 ppm [6] | percent effect (mortality or growth inhibition) at 200 ppm [2] | percent effect (mortality or growth inhibition) at 200 ppm [3] | mortality at 200 ppm [5]

CCS(=O)(=O)c1cc(-c2nc(C(F)(F)F)cs2)cnc1C(=O)/N=c1\sc(C(F)(F)F)nn1C [Compound P60]
≥ 80%: percent control (mortality, anti-feedant effect or growth inhibition) at 200 ppm [1] | percent control (mortality, anti-feedant effect or growth inhibition) at 12.5 ppm [6] | percent effect (mortality or growth inhibition) at 200 ppm [2] | percent effect (mortality or growth inhibition) at 200 ppm [3] | mortality at 200 ppm [4]
